Results published in US11999727B2 (Tango Therapeutics, Inc., priority 2020, dated 2024).

Legend:
PRMT5 [1] = biological target: T1, PRMT5 (Homo sapiens, UniProt O14744); test: PRMT5 biochemical IC50 assay with SAM as cofactor; conditions: PRMT5, SAM as cofactor; read-out: SAM IC50
T1 construct: purchased Viva (custom protein)

[2] = tested on: HAP1 MTAP-deleted cell line; test: SDMA in-cell western assay, HAP1 MTAP-deleted; assay type: cell-based; conditions: for IC50: HAP1 MTAP-deleted
Outline: (§1)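 Compounds were tested in HAP1 cells differing only in MTAP status (endogenous expression versus null). Cellular SDMA levels were then measured by in-cell western, giving an IC50 in each background.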

[3] = tested on: HAP1 MTAP-intact cell line; test: SDMA in-cell western assay, HAP1 MTAP-intact; assay type: cell-based; conditions: Homo sapiens, HAP1, SDMA in-cell western, HAP1 MTAP-intact; read-out: MTAP HAP1 intact IC50
Outline: as §1

PRMT5 [4] = biological target: T1, PRMT5; test: PRMT5 biochemical IC50 assay with MTA as cofactor; conditions: PRMT5, MTA as cofactor; read-out: MTA IC50
PRMT5 [5] = biological target: T1, PRMT5; test: PRMT5 biochemical IC50 assay with no cofactor; conditions: PRMT5, no cofactor
Description: Table 1 indicates IC50 values (μM) against PRMT5 for exemplary compounds in the presence of SAM as cofactor, with no cofactor, and with MTA as cofactor, respectively (columns 4-6). […] Ki values can be calculated from the IC50 values as described in the Examples section. As detailed in the Examples section, for the assay performed in the presence of SAM, IC50=Ki×1.5 (Ki=IC50/1.5).

[6] = tested on: HAP1 MTAP-deleted cell line; test: Viability assay, MTAP-deleted cell line; assay type: cell-based; conditions: Homo sapiens, read-out: HAP1 MTAP deleted viability
Description: Table 1 additionally indicates IC50 values in a viability assay for the MTAP-deleted cell line (column 10), indicating the effect of treatment with compound on cell survival.

[7] = Homo sapiens, HAP1, SDMA in-cell western, read-out: HAP1 MTAP deleted IC50
[8] = IC50 ratio HAP1 MTAP-intact / HAP1 MTAP-deleted, SDMA in-cell western
[9] = Homo sapiens, HAP1, SDMA in-cell western, read-out: HAP 1 MTAP deleted IC50
[10] = read-out: No Cofactor/ rel IC50
[11] = HAP1, viability assay, MTAP-deleted cell line

T1 sequence (O14744 whole entry): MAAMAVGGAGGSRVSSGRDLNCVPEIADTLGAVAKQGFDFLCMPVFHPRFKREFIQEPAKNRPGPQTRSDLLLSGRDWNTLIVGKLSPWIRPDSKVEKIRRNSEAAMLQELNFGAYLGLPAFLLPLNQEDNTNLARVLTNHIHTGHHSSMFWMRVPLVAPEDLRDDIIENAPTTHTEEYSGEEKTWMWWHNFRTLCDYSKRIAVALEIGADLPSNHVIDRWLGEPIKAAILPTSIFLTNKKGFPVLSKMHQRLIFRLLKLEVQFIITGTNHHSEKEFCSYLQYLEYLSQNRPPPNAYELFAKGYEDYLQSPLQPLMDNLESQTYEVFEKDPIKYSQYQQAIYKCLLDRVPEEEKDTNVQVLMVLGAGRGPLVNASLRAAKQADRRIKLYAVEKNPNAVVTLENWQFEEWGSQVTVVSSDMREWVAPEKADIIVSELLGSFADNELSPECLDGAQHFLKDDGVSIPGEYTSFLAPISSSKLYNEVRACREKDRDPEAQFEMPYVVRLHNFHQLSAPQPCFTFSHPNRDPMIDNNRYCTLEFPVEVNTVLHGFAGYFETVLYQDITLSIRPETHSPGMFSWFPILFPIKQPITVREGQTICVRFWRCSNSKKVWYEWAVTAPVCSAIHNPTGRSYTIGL
T1 sequence (Q9BQA1 whole entry partner): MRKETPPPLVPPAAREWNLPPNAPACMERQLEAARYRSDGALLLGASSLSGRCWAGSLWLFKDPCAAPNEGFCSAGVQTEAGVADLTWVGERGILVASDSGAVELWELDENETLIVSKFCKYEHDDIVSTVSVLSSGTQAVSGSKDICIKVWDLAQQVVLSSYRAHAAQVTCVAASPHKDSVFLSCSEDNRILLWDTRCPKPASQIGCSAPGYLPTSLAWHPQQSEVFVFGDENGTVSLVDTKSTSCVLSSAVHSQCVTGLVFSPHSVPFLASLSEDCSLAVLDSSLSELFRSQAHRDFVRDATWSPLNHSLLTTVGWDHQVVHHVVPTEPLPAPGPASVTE

Q: Which IC50 (PRMT5 [1]) does the source give for `Cc1cc([C@@H]2CC[C@@H](C)CN2C(=O)C(=O)Nc2cncc(C(N)=O)c2)ccc1F` (single isomer, unassigned) [Compound 307] here?
A: > 500 nM

Q: What about the IC50 [2, 7] of the same compound?
A: > 1000 nM

Q: And the MTAP intact/deleted ratio [2, 8]?
A: C (an IC50 ratio of less than 3 fold)

Q: What about the IC50 [3] of the same compound?
A: > 1000 nM

Q: And the IC50 (PRMT5 [4])?
A: > 500 nM

Q: And the IC50 (PRMT5 [5]; read-out: No Cofactor/rel IC50)?
A: > 500 nM

Q: `COc1ncc(NC(=O)C(=O)N2CCCCC2C2CCCCC2)cc1C(N)=O` (single isomer, unassigned) [Compound 317, 5-(2-(2-cyclohexylpiperidin-1-yl)-2-oxoacetamido)-2-methoxynicotinamide] was tested. Which IC50 (PRMT5 [1]) did it give?
A: > 500 nM

Q: What about the MTAP intact/deleted ratio [2, 8] of the same compound?
A: C (an IC50 ratio of less than 3 fold)

Q: What about the IC50 ([2]; SDMA in-cell western, read-out: HAP1 MTAP deleted IC50) of the same compound?
A: > 1000 nM

Q: What about the IC50 [3] of the same compound?
A: > 1000 nM

Q: What about the IC50 (PRMT5 [4]) of the same compound?
A: > 500 nM

Q: What about the IC50 (PRMT5 [5]; read-out: No Cofactor/rel IC50) of the same compound?
A: > 500 nM

Q: Which results are given for `Cc1cc(NC(=O)C(=O)N2C[C@H](C)C[C@H](C)[C@H]2c2ccccc2)cnc1N` (single isomer, unassigned) [Compound 343]?
A: IC50 (PRMT5 [1]): > 500 nM; IC50 [2, 7]: > 1000 nM; MTAP intact/deleted ratio [2, 8]: C (an IC50 ratio of less than 3 fold); IC50 [3]: > 1000 nM; IC50 (PRMT5 [4]): > 500 nM; IC50 (PRMT5 [5]; read-out: No Cofactor/rel IC50): > 500 nM

Q: For `CCc1cc(NC(=O)C(=O)N2C[C@@H](C)CC[C@@H]2c2cccc([C@H]3CCCN(C)C3)c2)cnc1N` (single isomer, unassigned) [Compound 1285], which IC50 ([6]; HAP1, viability, HAP1 MTAP-deleted cell line) is on record?
A: < 1000 nM

Q: What about the IC50 (PRMT5 [1]) of the same compound?
A: 50 to 500 nM

Q: And the IC50 [2, 9]?
A: < 100 nM

Q: What about the “MTAP intact/deleted ratio” value [2, 8] of the same compound?
A: A (an IC50 ratio greater than or equal to 10 fold)

Q: What about the IC50 [3] of the same compound?
A: 100 to 1000 nM

Q: What about the IC50 (PRMT5 [5]; [10]) of the same compound?
A: < 50 nM

Q: How did the IC50 [6, 11] turn out when `Cc1cncc(NC(=O)C(=O)N2C[C@@H](C)CC[C@@H]2c2cccc(F)c2)c1` (single isomer, unassigned) [Compound 77] was run?
A: > 10000 nM

Q: What about the IC50 [2, 9] of the same compound?
A: > 1000 nM

Q: And the “MTAP intact/deleted ratio” value [2, 8]?
A: C (an IC50 ratio of less than 3 fold)

Q: And the IC50 [3]?
A: > 1000 nM

Q: What about the IC50 (PRMT5 [4]) of the same compound?
A: > 500 nM

Q: What about the IC50 (PRMT5 [5]; [10]) of the same compound?
A: > 500 nM

Q: With `Cc1cc(NC(=O)C(=O)N2C[C@H](C)CC[C@@H]2C2CCNC(=O)C2)cnc1N` (mixture of isomers) [Compound 159, N-(6-amino-5-methyl-3-pyridyl)-2-[(2S,5S)-5-methyl-2-(2-oxo-4-piperidyl)-1-piperidyl]-2-oxo-acetamide] as the compound, how does the IC50 [6, 11] read?
A: > 10000 nM

Q: What about the IC50 (PRMT5 [1]) of the same compound?
A: 50 to 500 nM

Q: And the IC50 [2, 9]?
A: > 1000 nM

Q: And the “MTAP intact/deleted ratio” value [2, 8]?
A: B (an IC50 ratio greater than or equal to 3 fold but lower than 10 fold)

Q: What about the IC50 [3] of the same compound?
A: > 1000 nM

Q: And the IC50 (PRMT5 [5]; [10])?
A: 50 to 500 nM

Q: Which IC50 (PRMT5 [1]) does the source give for `Cc1cc([C@H]2CC[C@H](C)CN2C(=O)C(=O)Nc2cncc(C(N)=O)c2)cc(C)c1O` (single isomer, unassigned) [Compound 326] here?
A: > 500 nM

Q: And the IC50 [2, 7]?
A: > 1000 nM

Q: What about the MTAP intact/deleted ratio [2, 8] of the same compound?
A: C (an IC50 ratio of less than 3 fold)

Q: And the IC50 [3]?
A: > 1000 nM

Q: And the IC50 (PRMT5 [4])?
A: > 500 nM

Q: And the IC50 (PRMT5 [5]; read-out: No Cofactor/rel IC50)?
A: > 500 nM

Q: Which results are given for `COc1ncc(NC(=O)C(=O)N2C[C@H](C)C(F)(F)C[C@H]2c2ccc(F)cc2)cc1C(N)=O` (single isomer, unassigned) [Compound 1068]?
A: IC50 (PRMT5 [1]): 50 to 500 nM; IC50 [2, 7]: < 100 nM; MTAP intact/deleted ratio ([2]; IC50 ratio HAP1 MTAP-intact vs HAP1 MTAP-deleted, SDMA in-cell western): A (an IC50 ratio greater than or equal to 10 fold); IC50 [3]: > 1000 nM; IC50 (PRMT5 [4]): < 50 nM; IC50 (PRMT5 [5]; read-out: No Cofactor/rel IC50): 50 to 500 nM

Q: What does the source list for `CC(=O)N1CCC(c2cccc([C@H]3CC[C@H](C)CN3C(=O)C(=O)Nc3cncc(C(N)=O)c3)c2)CC1` (single isomer, unassigned) [Compound 332]?
A: IC50 (PRMT5 [1]): > 500 nM; IC50 [2, 7]: > 1000 nM; MTAP intact/deleted ratio [2, 8]: C (an IC50 ratio of less than 3 fold); IC50 [3]: > 1000 nM; IC50 (PRMT5 [4]): > 500 nM; IC50 (PRMT5 [5]; read-out: No Cofactor/rel IC50): > 500 nM

Q: For `COc1ncc(NC(=O)C(=O)N2C[C@@H](C)CC[C@@H]2c2ccc(F)cc2)cc1C(F)F` [Compound 1057, N-[5-(Difluoromethyl)-6-methoxy-3-pyridyl]-2-[(2R,5S)-2-(4-fluorophenyl)-5-methyl-1-piperidyl]-2-oxo-acetamide], which IC50 (PRMT5 [1]) is on record?
A: > 500 nM

Q: And the IC50 [2, 9]?
A: > 1000 nM

Q: And the MTAP intact/deleted ratio [2, 8]?
A: B (an IC50 ratio greater than or equal to 3 fold but lower than 10 fold)

Q: What about the IC50 [3] of the same compound?
A: > 1000 nM

Q: What about the IC50 (PRMT5 [4]) of the same compound?
A: 50 to 500 nM

Q: And the IC50 (PRMT5 [5]; read-out: No Cofactor/rel IC50)?
A: 50 to 500 nM

Q: With `C[C@@H]1CC[C@@H](c2ccc3c(c2)OCCN3)N(C(=O)C(=O)Nc2cncc(C(N)=O)c2)C1` (single isomer, unassigned) [Compound 605] as the compound, how does the IC50 ([6]; HAP1, viability IC50, MTAP-deleted cell line) read?
A: > 10000 nM

Q: What about the IC50 (PRMT5 [1]) of the same compound?
A: > 500 nM

Q: What about the IC50 [2, 9] of the same compound?
A: > 1000 nM

Q: And the MTAP intact/deleted ratio [2, 8]?
A: B (an IC50 ratio greater than or equal to 3 fold but lower than 10 fold)

Q: What about the IC50 [3] of the same compound?
A: > 1000 nM

Q: What about the IC50 (PRMT5 [5]; read-out: No Cofactor/rel IC50) of the same compound?
A: > 500 nM
